Drawing on ChEMBL document CHEMBL2157964, “Effect of alkyl chain length on sphingosine kinase 2 selectivity” (Bioorg Med Chem Lett, 2012), this text covers Activity, Ki and Ratio Ki for 19 compounds.

In test [1] the target is T1, Sphingosine kinase 1 (Homo sapiens, UniProt Q9NYA1). Kind of test: Inhibition of recombinant SphK1 expressed in baculovirus infected Sf9 cells using D-erythro-sphingosine as substrate and [32gammaP]ATP assessed as residual activity at 10 uM by scintillation counting.
For test [2], the target named is T2, Sphingosine kinase 2 (Homo sapiens) (UniProt Q9NRA0).
T2 sequence (whole entry): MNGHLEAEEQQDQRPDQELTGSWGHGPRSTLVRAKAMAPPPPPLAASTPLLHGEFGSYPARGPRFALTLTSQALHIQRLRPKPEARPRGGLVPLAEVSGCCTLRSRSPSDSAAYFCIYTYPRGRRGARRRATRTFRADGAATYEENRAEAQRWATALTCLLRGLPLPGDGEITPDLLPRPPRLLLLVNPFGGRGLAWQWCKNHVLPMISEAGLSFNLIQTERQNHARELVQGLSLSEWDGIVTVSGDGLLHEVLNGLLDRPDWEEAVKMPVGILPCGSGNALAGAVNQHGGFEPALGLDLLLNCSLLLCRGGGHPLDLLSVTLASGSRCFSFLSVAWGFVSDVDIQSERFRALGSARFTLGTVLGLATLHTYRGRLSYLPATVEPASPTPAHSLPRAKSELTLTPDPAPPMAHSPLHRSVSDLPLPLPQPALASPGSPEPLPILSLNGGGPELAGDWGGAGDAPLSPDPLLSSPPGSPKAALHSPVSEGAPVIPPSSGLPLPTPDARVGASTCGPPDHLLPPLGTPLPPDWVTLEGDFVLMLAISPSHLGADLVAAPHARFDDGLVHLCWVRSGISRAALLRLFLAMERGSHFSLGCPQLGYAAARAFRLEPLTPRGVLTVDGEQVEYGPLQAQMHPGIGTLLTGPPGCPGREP
Kind of test: Inhibition of recombinant SphK2 expressed in baculovirus infected Sf9 cells using D-erythro-sphingosine as substrate and [32gammaP]ATP assessed as residual activity at 10 uM by scintillation counting.

The target of test [3] is T1, Sphingosine kinase 1. Kind of test: Inhibition of recombinant SphK1 expressed in baculovirus infected Sf9 cells using D-erythro-sphingosine as substrate and [32gammaP]ATP by scintillation counting.
Test [4] addresses T3, Sphingosine kinase 2 (Homo sapiens, UniProt Q9NRA0).
T3 sequence (Q9NRA0 whole entry): T2 sequence (whole entry)
Kind of test: Inhibition of recombinant SphK2 expressed in baculovirus infected Sf9 cells using D-erythro-sphingosine as substrate and [32gammaP]ATP by scintillation counting.

The nature of test [5]: Selectivity ratio of Ki for recombinant SphK1 to Ki for recombinant SphK2.
Test [6] deals with T3, Sphingosine kinase 2. Kind of test: Inhibition of SphK2 using sphingosine as substrate and [32gammaP]ATP after 15 to 20 mins by Cerenkov counting analysis.
The target in test [7] is T3, Sphingosine kinase 2. Kind of test: Inhibition of human recombinant SphK2 using NBD-sphingosine as substrate after 2 hrs by HPLC analysis.

Molecules are shown by their SMILES.

T1 sequence (Q9NYA1 whole entry): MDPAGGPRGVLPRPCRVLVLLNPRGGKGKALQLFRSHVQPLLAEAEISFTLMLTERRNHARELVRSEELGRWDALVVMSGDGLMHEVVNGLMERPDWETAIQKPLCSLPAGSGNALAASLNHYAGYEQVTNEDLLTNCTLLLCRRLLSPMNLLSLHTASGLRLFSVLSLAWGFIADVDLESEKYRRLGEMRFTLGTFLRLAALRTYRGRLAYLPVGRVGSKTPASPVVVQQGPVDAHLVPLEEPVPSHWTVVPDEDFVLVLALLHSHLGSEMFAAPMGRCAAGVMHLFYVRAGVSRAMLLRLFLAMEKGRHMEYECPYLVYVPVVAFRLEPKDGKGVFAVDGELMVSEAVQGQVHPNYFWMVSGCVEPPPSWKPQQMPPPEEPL

For `CCCCCCCC#Cc1ccc([C@H]2CC[C@H]([N+](C)(C)CCC)CC2)cc1`, the Activity is 87% on Sphingosine kinase 1 [1] and 100% in test [2].
The like results for `CCCCCCCOc1ccc([C@H]2CC[C@H]([N+](C)(C)CCC)CC2)cc1` were, in that order, 100% and 70%.
In the case of `CCCCCCCCCCCC(=O)c1ccc([C@H]2CC[C@H]([N+](C)(C)CCC)CC2)cc1`, the Activity amounted to 88% on Sphingosine kinase 1 [1] and 41% in test [2].
With `CCCCCCCCCC(=O)c1ccc([C@H]2CC[C@H]([N+](C)(C)CCC)CC2)cc1`, the figures for the Activity (on Sphingosine kinase 1 [1]; in test [2]) were 93% and 75%, respectively.
One may read the Ki as the equilibrium dissociation constant of an inhibitor or competing ligand from its target. Turning to `CCCCCCCCCCCCCCCCc1ccc([C@H]2CC[C@H]([N+](C)(C)CCC)CC2)cc1`, the Activity amounted to 94% at Sphingosine kinase 1 [1] and 70% in test [2]. In addition, the Ki on Sphingosine kinase 1 [3] is 27 µM; on Sphingosine kinase 2 [4] it was 29 µM.
On to `CCCCCCCCCCCCCCCC(=O)c1ccc([C@H]2CC[C@H]([N+](C)(C)CCC)CC2)cc1`, for which the Activity on Sphingosine kinase 1 [1] came to 77%; in test [2], 58%.
`CCCCCCc1ccc([C@H]2CC[C@H]([N+](C)(C)CCC)CC2)cc1`: the Activity (at Sphingosine kinase 1 [1]; in test [2]) was 98% throughout. The Ki on Sphingosine kinase 1 [3] was found to be 35 µM; on Sphingosine kinase 2 [4], 43 µM.
For the compound `CCCCCCCCCCCCCC(=O)c1ccc([C@H]2CC[C@H]([N+](C)(C)CCC)CC2)cc1`, the Activity on Sphingosine kinase 1 [1] worked out at 73%; in test [2], 50%.
Consider `CCCCCCCCc1ccc([C@H]2CC[C@H]([N+](C)(C)CCC)CC2)cc1`, for which the Activity is 100% on Sphingosine kinase 1 [1] and 64% in test [2]. Moreover, the Ki on Sphingosine kinase 1 [3] stood at 22 µM; at Sphingosine kinase 2 [4] it was 21 µM.
In the case of `CCCCCCCCCCCCc1ccc([C@H]2CC[C@H]([N+](C)(C)CCC)CC2)cc1`, the Activity came to 63% on Sphingosine kinase 1 [1] and 26% in test [2]. For the same compound, the Ki at Sphingosine kinase 1 [3] was 13 µM; on Sphingosine kinase 2 [4], 8 µM.
Consider `CCCCCCCCCCCCCCc1ccc([C@H]2CC[C@H]([N+](C)(C)CCC)CC2)cc1`, for which the values for the Activity (on Sphingosine kinase 1 [1]; in test [2]) were 76% and 38%, respectively. In addition, the results for the Ki at Sphingosine kinase 1 [3] and at Sphingosine kinase 2 [4] were 36 µM and 7 µM, respectively. In test [5], the Ratio Ki stood at 3.
In the case of `CCCCCCCCC#Cc1ccc([C@H]2CC[C@H]([N+](C)(C)CCC)CC2)cc1`, the Activity at Sphingosine kinase 1 [1] amounted to 61%; in test [2] it was 78%.
Regarding `CCCCCC(=O)c1ccc([C@H]2CC[C@H]([N+](C)(C)CCC)CC2)cc1`, the Activity on Sphingosine kinase 1 [1] was 89%; in test [2], 71%.
`CCCCCCCCc1ccc(CC[C@@](N)(CO)COC)cc1`: the Ki at Sphingosine kinase 2 [6] came out at 16.5 µM.
For the compound `CCCCCCCCCCCc1ccc([C@H]2CC[C@H]([N+](C)(C)CCC)CC2)cc1`, the Activity at Sphingosine kinase 1 [1] is 44%; in test [2] it was 50%. Besides, the Ki at Sphingosine kinase 1 [3] stood at 15 µM; at Sphingosine kinase 2 [4], 11 µM.
Regarding `O=C(NCc1ccncc1)C12CC3CC(C1)CC(c1ccc(Cl)cc1)(C3)C2` [ABC-294640], on Sphingosine kinase 2 [7], the Ki was determined as 9.8 µM.
On to `CCCCCCCCCCc1ccc([C@H]2CC[C@H]([N+](C)(C)CCC)CC2)cc1`, for which the values for the Activity (at Sphingosine kinase 1 [1]; in test [2]) were 67% and 26%, respectively. Besides, the Ki at Sphingosine kinase 1 [3] stood at 35 µM; on Sphingosine kinase 2 [4] it was 43 µM.
Consider `CCCCCCCCCCC(=O)c1ccc([C@H]2CC[C@H]([N+](C)(C)CCC)CC2)cc1`, for which the Activity at Sphingosine kinase 1 [1] is 79%; in test [2], 40%.
Take `CCCCCCCCCC#Cc1ccc([C@H]2CC[C@H]([N+](C)(C)CCC)CC2)cc1`: the Activity at Sphingosine kinase 1 [1] is 62%; in test [2], 28%.
